Patent US7244750B2, “Active substance combinations having insecticidal and acaricidal properties” (Bayer CropScience Aktiengesellschaft, priority 2000, dated 2007)

System: whitefly Bemisia tabaci
Test: Bemisia test (plant-damaging insects; infested cotton plants immersed in active compound preparation)
Type: in vivo
Conditions: single active compound, eggs, larvae and pupae on cotton plants (Gossypium hirsutum)
Procedure: • Bemisia Test • Solvent: 7.5 parts by weight of dimethylformamide Emulsifier: 2.5 parts by weight of alkylaryl polyglycol ether
To produce a suitable preparation of active compound, 1 part by weight of active compound is mixed with the stated amounts of solvent and emulsifier, and the concentrate is diluted with water to the desired concentration.
Cotton plants (Gossypium hirsutum) which are infested with eggs, larvae and pupae of the whitefly Bemisia tabaci are immersed in a preparation of active compound of the desired concentration.
After the desired period of time, the kill in % is determined. 100% means that all animals have been killed; 0% means that none of the animals have been killed.

Cc1cc(C)c(C2=C(OC(=O)CC(C)(C)C)C3(CCCC3)OC2=O)c(C)c1 [Ex. (I-b-1)]
Kill rate in % after 10 d (4 ppm): 0% | Kill rate in % after 10 d (20 ppm): 80%

CC1=NNC(=O)N(/N=C/c2cccnc2)C1 [Pymetrozin, pymetrozin]
Kill rate in % after 10 d (4 ppm): 0%

CC(COc1ccc(Oc2ccccc2)cc1)Oc1ccccn1 (stereo not shown) [Pyriproxiphen, pyriproxyfen]
Kill rate in % after 10 d (20 ppm): 0%
